Laboratory results reported in patent EP0702683B1, “06-SUBSTITUTED GUANINE DERIVATIVES, A PROCESS FOR THEIR PREPARATION AND THEIR USE IN TREATING TUMOUR CELLS” (Cancer Research Technology Limited, priority 1993, dated 1994).
Like-named read-outs stand apart in the source and are kept apart here.

Experiments:
[1] = Stability of inactivators at 37°C (spectrophotometric half life); type: physicochemical
Experimental: Inactivators (10mM in DMSO) were diluted to 0.1mM in prewarmed degassed buffer I (1mM EDTA, 50mM Tris pH 8.3) or PBS (pH 7-7.2). […] Samples were immediately transferred to a CARY13 spectrophotometer (cuvette block held at 37°C) and scanned at an appropriate wavelength (according to the spectral properties of the compound) at 3-10 minute intervals for up to 80 hours. The results were expressed as percentage absorbance change versus time and T1/2 values (half life) extrapolated from this.

[2] = tested on: Raji cells; assay: Sensitization of Raji cells to BCNU (XTT assay); type: cell-based, human; details: BCNU, 2 hour pretreatment; for Raji sensitization (D90.^C/D90.^I) 0.5µM: inactivator 0.5µM; for Raji sensitization (D90.^C/D90.^I) 1.0µM: inactivator 1.0µM; for Raji sensitization (D90.^C/D90.^I) O.1µM: inactivator O.1µM
Experimental: (§1) Following a 2 hour incubation at 37°C, medium containing either increasing doses of BCNU, temozolomide or equivalent vehicle was added and the cells allowed to grow for 6 days. At this time XTT solution was added and the cells incubated for a further 4 hours at 37°C. The resulting red/orange formazan reaction product was quantified by measuring absorption at 450nm on a microtitre platereader.

[3] = biological target: T1, ATase (Homo sapiens, UniProt P16455); assay: In vitro ATase inactivation assay with purified recombinant human ATase; type: biochemical; design: made in house
T1 sequence (P16455 1-207): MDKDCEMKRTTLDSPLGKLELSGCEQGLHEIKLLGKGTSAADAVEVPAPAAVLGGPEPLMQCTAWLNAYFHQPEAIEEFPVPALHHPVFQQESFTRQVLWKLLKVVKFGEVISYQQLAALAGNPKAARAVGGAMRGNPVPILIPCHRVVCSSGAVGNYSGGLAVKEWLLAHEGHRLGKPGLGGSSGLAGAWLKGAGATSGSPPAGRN
Experimental: The cDNA cloning and overexpression of the human ATase has been reported previously^23. Purification of the recombinant proteins was achieved either by affinity chromatography through a DNA-cellulose column as described by Wilkinson et al.,^25, 26, or by DEAE-cellulose ion-exchange chromatography. For the latter, the ATase protein was partially purified by ammonium sulphate precipitation (30 - 60%) and dialysed against 10 mM Tris-HCl pH 7.5, 1 mM DTT, 2 mM EDTA, 10% glycerol, before loading on a DEAF-cellulose column. The ATase was then eluted with a 0-0.1 M NaCl gradient.
Compounds to be tested were dissolved in DMSO to a final concentration of 10 mM and diluted just before use in buffer I containing 1 mg/ml bovine serum albumin (IBSA). Recombinant ATase was diluted in IBSA and titrated in order that the reaction be conducted under ATase, and not substrate, limiting conditions. In each assay, fixed amounts of ATase (60-75 fmol) were incubated with varying amounts of 0^6-benzylguanine, or test compound in a total volume of 200 µl of IBSA containing 10 µg of calf thymus DNA at 37°C for 1 hour. The [^3H]-methylated-DNA substrate (100 µl containing 6.7 µg of DNA and 100 fmol of 0^6-methylguanine) was added and incubation continued at 37° for 1 hour, until the reaction was completed. Following acid hydrolysis of the DNA as previously described^21 the [^3H]-methylated protein was recovered and quantitated by liquid scintillation counting. Samples were typically assayed in duplicate and experiments repeated several times. I50 is the concentration of inactivator required to produce a 50% reduction in ATase activity.

[4] = biological target: T1, ATase; assay: Inactivation of ATase activity in Raji cells; type: cell-based; design: endogenous in cells; host or cells: Raji; details: Raji cells, 2 hours at 37°C; read-out: Raji I50
Experimental: (§2) Mammalian cells were cultured under standard conditions. For example, Raji (a human lymphoblastoid cell line from a Burkitt's lymphoma) cells were grown in suspension culture in RPMI medium supplemented with 10% horse serum. A375M cells are human melanoma cells from which the xenografts described below were established following subcutaneous injection into nude mice: WiDr cells are a human colon carcinoma cell line: Hamster+120 cells are a mitozolomide-selected subline of a Chinese hamster lung fibroblast V79 cell line called RJKO: Yoshida cells are a rat carcinosarcoma cell line and YRbus is a busulphan resistant subline thereof: XP cells are an SV40-transformed fibroblast cell line originally from the skin of a Xeroderma pigmentosum patient, pHMGhAT2b cells are a clone of these cells that have been transfected with a mammalian cell expression vector containing the human ATase cDNA and pHMGla cells are a clone that have been transfected with the expression vector only (i.e. one not containing the human ATase cDNA). Cell pellets were resuspended in cold (4°C) buffer I containing 2 µg/ml leupeptin and sonicated for 10 seconds at 12 µ peak to peak distance. After cooling in ice, the cells were sonicated for a further 10 seconds at 18 µ. Immediately after sonication, 0.01 volumes of 8.7 mg/ml phenylmethanesulphonylfluoride in ethanol was added and the sonicates centrifuged at 15 000 g for 10 minutes at 4°C to pellet cell debris. The supernatant was kept for determination of ATase activity (see below).
(§3) Cells were diluted to 10^6/ml in culture medium containing either the appropriate concentration of inactivator or an equivalent volume of vehicle (DMSO). Following incubation at 37°C for 2 hours the cells were harvested by centrifugation, washed twice with PBS and the resulting cell pellets (between 1-2 x 10^7 per pellet) stored at -20°C.

[5] = tested on: A375M cells; assay: Sensitization of A375M cells to BCNU (MTT assay); type: cell-based, human; details: for A375M sensitization (D50.^C/D50.^I) 1.0uM: inactivator 1.0uM 2 hours before; for A375M sensitization (D50.^C/D50.^I) 0.5uM: inactivator 0.5uM 2 hours before; for A375M sensitization (D50.^C/D50.^I) 5.0uM: inactivator 5.0uM 2 hours before
Experimental: Sensitization of A375M cells to the cytotoxic effects of BCNU was analysed by MTT assay ^24 differing from the XTT assay described above as follows. […] After 6 days MTT solution (4mg/ml) was added and cells incubated for 3 hours at 37°C. Medium was aspirated and the resulting purple formazan crystals were solubilised in DMSO (120μl) and cell viability was quantified by measuring absorption at 540nm using a microtitre plate reader.

[6] = tested on: Raji cells; assay: Sensitization of Raji cells to temozolomide (XTT assay); type: cell-based, human; details: inactivator 0.1 to 5.0µM, Figures 3 and 4, in words
Experimental: as §1

[7] = Toxicity of inactivator in combination with BCNU in xenograft-bearing mice (survival); type: in vivo, nude mice; details: mouse, in vivo, ip; in combination with BCNU, Figs. 9-13; read-out: death of treated animals
Experimental: 0X6 OPT, England (OLAC mice). […] For this reason lower doses were administered.
Xenograft tumour measurements were taken every 1-2 days by workers using digital calipers. Tumour volume was calculated using the formula (h x w x 1) π/6. The experimental animals were also weighed every 1-2 days. Measurements continued until tumours in the control animals reached the maximum allowable volume (i.e. 1cm x 1cm x 1cm).

[8] = tested on: human bone marrow cells; assay: Sensitization of bone marrow cells to temozolomide (GM-CFC assay); type: cell-based; details: three samples tested (BeG: all three; B.4205: two of these), Fig. 14, in words
From the text: For the granulocyte/macrophage colony-forming cell (GM-CFC) assay primary human bone marrow samples were obtained from patients undergoing cardiothoracic surgery. […] The colonies represented precursor cells of the granulocyte/macrophage lineage (huGM-CFC). Survival was expressed as a % of the number of colonies at zero dose temozolomide.

[9] = biological target: T2, ATase (Rattus norvegicus, UniProt P24528); assay: Inactivation of ATase activity in Yoshida cells; type: cell-based
T2 construct: endogenous in cells; host or cells: Yoshida
T2 sequence (P24528 1-209): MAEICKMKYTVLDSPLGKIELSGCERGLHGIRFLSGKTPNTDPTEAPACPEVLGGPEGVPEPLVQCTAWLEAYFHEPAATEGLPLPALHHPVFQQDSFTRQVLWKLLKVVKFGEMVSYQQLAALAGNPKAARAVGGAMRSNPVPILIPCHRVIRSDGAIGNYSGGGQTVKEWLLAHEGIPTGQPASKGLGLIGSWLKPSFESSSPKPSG
Experimental: as §2
as §3, with “-20°C. ATase activity was determined as described above, in duplicate sonicated cell extracts and expressed as the percentage activity remaining based on that present in the untreated controls (for example 350-450 fm/mg in Raji cells).” for “-20°C.”

[10] = Inactivator toxicity in bone marrow cells (GM-CFC colonies, inactivator alone); type: cell-based, human; details: human, bone marrow gm-cfc, inactivator 10uM, read-out: No. of colonies as % of control (ie no inactivator)
From the text: For the granulocyte/macrophage colony-forming cell (GM-CFC) assay primary human bone marrow samples were obtained from patients undergoing cardiothoracic surgery. […] The colonies represented precursor cells of the granulocyte/macrophage lineage (huGM-CFC). […]

[11] = 0.1mM in PBS (pH 7-7.2), read-out: T1/2(h) in PBS (converted)
[12] = 0.1mM in buffer I (1mM EDTA, 50mM Tris pH 8.3), read-out: T1/2(h) in Buffer I (converted)

Row | Compound | half-life at 100 µM [1, 11] | Raji sensitization (D90.^C/D90.^I) 0.5µM [2] | Raji sensitization (D90.^C/D90.^I) 1.0µM [2] | Raji sensitization (D90.^C/D90.^I) O.1µM [2] | IC50 [3] | IC50 [4] | A375M sensitization (D50.^C/D50.^I) 1.0uM [5] | half-life at 100 µM [1, 12] | A375M sensitization (D50.^C/D50.^I) 0.5uM [5] | A375M sensitization (D50.^C/D50.^I) 5.0uM [5] | dose response of sensitization of Raji cells to temozolomide [6] | mortality [7] | sensitization of GM-CFCs in human bone marrow samples to the toxic effects of temozolomide [8] | IC50 [9] | viability at 216 h, 10 µM ([10]; Patient A) | viability at 216 h, 10 µM ([10]; Patient B) | viability at 216 h, 10 µM ([10]; Patient C) | viability at 216 h, 10 µM ([10]; Patient D) | viability at 216 h, 10 µM ([10]; Patient E)
1 | Cc1ccsc1COc1nc(N)nc2[nH]cnc12 [B.4222, O^6-(3-methylthenyl)guanine] | > 16 h | 1.9 | 2.1 | 1.4 | 650 nM | 470 nM | 1.4 |  |  |  |  |  |  |  |  |  |  |  | 
2 | Nc1nc(OCc2cc3ccccc3s2)c2nc[nH]c2n1 [B.4226, O^6-(2-benzo[b]thienylmethyl)guanine] | 6.7 h | 1.6 | 10.0 | 1.6 | 30 nM | 60 nM |  | 9.7 h | 3.8 | 4.5 |  |  |  |  |  |  |  |  | 
3 | COC(=O)c1ccc(COc2nc(N)nc3[nH]cnc23)o1 [B.4229, O^6-(5-methoxycarbonylfurfuryl)guanine] | > 16 h | 2.1 | 2.5 | 1.2 | 90 nM | 250 nM | 1.8 |  |  |  |  |  |  |  |  |  |  |  | 
4 | Nc1nc(OCc2ccc(C(=O)O)o2)c2nc[nH]c2n1 [B.4234, O^6-(5-carboxyfurfuryl)guanine] | > 16 h | 1.0 | 1.0 | 1.0 | 60000 nM | > 1000 nM | 0.8 |  |  |  |  |  |  |  |  |  |  |  | 
5 | Nc1nc(OCc2ccccc2)c2nc[nH]c2n1 [O^6-benzylguanine, reference compound] | > 16 h | *2.0 ± 0.4 | *3.8 ± 1.8 | *1.9 ± 0.7 |  |  | 2.3 | > 64 h | 3.1 | 4.2 | clear dose response | ≤ 70% | sensitised | 140 nM | 95% | 46% | 88% | 88% | 89%
